{"source": "paper PMC10649961", "about": "“Novel Mitochondria-Targeted Amphiphilic Aminophosphonium Salts and Lipids Nanoparticles: Synthesis, Antitumor Activity and Toxicity” (Nanomaterials, 2023)", "key": {"HuTu 80 cells [1]": {"tested_on": "HuTu 80 cells", "experiment": "Cell apoptosis assay, Annexin V/propidium iodide flow cytometry", "format": "cell-based, human", "settings": "HuTu 80, 48-h incubation, IC50/2 and IC50", "method": "HuTu 80 cells at a rate of 1 × 10^6 cells/well were seeded into six-well plates and incubated until a monolayer formed for approximately 24 h. After […] of incubation, various concentrations of compounds 4b, 5b, 6a, and 8 were added to the wells.\nCells were detached with a trypsin-versene solution (1:3), suspended in PBS, and collected at 2000 rpm for 5 min. Cells were then washed twice with ice-cold PBS, followed by resuspension in binding buffer. Next, the samples were incubated with 5 μL of Annexin V Alexa Fluor 647 (Sigma-Aldrich, St. Louis, MO, USA) and 5 μL of propidium iodide for 15 min at room temperature in the dark. Finally, the cells were analyzed by flow cytometry in the Red-R (661/15 nm)—annexin and Near IR-B (785/70 nm)—PI channels on a Guava easyCyte flow cytometer (Merck Millipore, Burlington, MA, USA) for 1 h. The experiments were repeated three times."}, "HuTu 80 cells [2]": {"tested_on": "HuTu 80 cells", "experiment": "Mitochondrial membrane potential, JC-10 flow cytometry", "format": "cell-based, human", "settings": "HuTu 80, 48-h treatment", "method": "The cells are prepared as in the Cell Apoptosis Assay section. Cells were detached with trypsin/versene solution (1:3), suspended in PBS, collected at 2000 rpm for 5 min, then washed twice with ice-cold PBS, followed by resuspension in JC-10 (10 μg/mL) and incubation at 37 °C for 10 min. The cells were then washed three times and suspended in PBS, and JC-10 fluorescence was observed by flow cytometry (Guava Easy Cyte).\nMost forms of apoptosis in mammals are realized not through cell death receptors but through the mitochondrial pathway. In this case, the outer membrane of the mitochondria breaks, and soluble proteins of the intermembrane space enter the cytoplasm. The permeability of the outer membrane of mitochondria is a finely regulated process, and its increase is a key event in triggering apoptosis. Induction of apoptosis by compounds 4b, 5b, 6a, and 8 at concentrations of IC50/2 and IC50 via the mitochondrial pathway on the HuTu 80 cell line was studied by flow cytometry using the fluorescent dye JC-10 from the Mitochondria Membrane Potential Kit."}, "HuTu 80 cells [3]": {"tested_on": "HuTu 80 cells", "experiment": "Intracellular ROS, CellROX Deep Red flow cytometry", "format": "cell-based, human", "settings": "HuTu 80, IC50/2 and IC50, compared with the control", "method": "ROS generation was investigated using a flow cytometry assay and the CellROX® Deep Red flow cytometry kit. For this, HuTu 80 cells were harvested at 2000 rpm for 5 min and then washed twice with ice-cold PBS, followed by resuspension in 0.1 mL of medium without FBS, to which was added 0.2 μL of CellROX® Deep Red and incubated at 37 °C for 30 min. After three washes, cells were suspended in PBS, and the cell production of ROS was immediately monitored using a flow cytometer (Guava easy Cyte)."}, "caspase 9": {"tested_on": "caspase 9", "experiment": "Caspase 9 ELISA in cell lysates", "format": "cell-based, human", "settings": "HuTu 80 lysates, IC50/2 and IC50, compared with the control", "method": "In vitro quantitative measurement of caspase-9 and caspase-8 was performed using ELISA kits (ELISA Kit for Caspase 9 and ELISA Kit for Caspase 8, Human Cloud-Clone Corp., Wuhan, China). The analysis was carried out according to the manufacturer’s instructions. Samples were standardized for total protein content (1 mg/mL). Protein concentration was determined with Coomassie-based assays using Bredford Dye Reagent (Bio-Rad, Hercules, CA, USA). The absorbance was measured using a microplate reader, EPOCH (BioTek Instruments, Inc., Winooski, VT, USA), at a wavelength of 450 ± 10 nm. Lysates of untreated HuTu 80 cells were used as controls.\nTo confirm that apoptosis induced by compounds 4b, 5b, 6a, and 8 proceeds along the internal (mitochondrial) pathway, studies were conducted to determine the enzymatic activity of the early apoptosis key markers—caspase 9 and caspase 8 using ELISA kits. The kits are sandwich enzyme immunoassays for in vitro quantitative measurement of Caspase 8 and Caspase 9 in cell lysates, rat tissue homogenates, and other biological fluids. Caspase 9 plays a key role in the mitochondrial signaling pathway of apoptosis induction. The activation of caspase 8 characterizes the external (receptor-dependent) pathway of apoptosis. HuTu 80 cells not treated with the tested compounds were used as a control."}, "HuTu 80 cells [4]": {"tested_on": "HuTu 80 cells", "experiment": "Cell cycle analysis, propidium iodide flow cytometry", "format": "cell-based, human", "settings": "HuTu 80, IC50, 48 h, compared with the control", "method": "The DNA content and cell-cycle distribution after compounds 4b, 5b, 6a, and 8 IC50 concentrations were estimated by flow cytometry. After washing with PBS, treated cells were suspended in 150 μL of PBS, then 0.5 mL of phosphate-citrate buffer (0.05 M, pH 4.0) was added, and the suspension was incubated at room temperature for 5 min to facilitate the extraction of low-molecular-weight DNA. Following centrifugation, the cells were resuspended in 150 μL DNA staining solution (20 μg/mL propidium iodide, 200 μg/mL […]) and incubated in the CO2 incubator (37 °C for 30 min). The distribution of the cell cycle was determined by fluorescence analysis of HuTu 80 cells stained with propidium iodide using Guava easyCyte (Guava easyCyte)."}, "[5]": {"tested_on": "human volunteer donor erythrocytes", "experiment": "Hemolytic assay", "format": "cell-based", "settings": "hemolysis in 50% of human erythrocytes, 1 h, 37 °C", "method": "The hemolytic activity of Aminophosphonium Salts was assessed by comparing the optical density of a solution containing the test compound with the optical density of blood at 100% hemolysis. Healthy human volunteer donor erythrocytes were used as the object of the study. Red blood cells with EDTA (1.8 mg/mL) were washed three times with saline (0.9% NaCl), centrifuged for 10 min at 800× g rpm, and resuspended in saline (0.9% NaCl) to a concentration of 10%. The tested concentrations (0.1–100 μM) were prepared in physiological solution (0.9% NaCl) (with the addition of 5% DMSO). Compounds at the appropriate dilution (450 μL) were added to 50 μL of a 10% red blood cell suspension. Samples were incubated for 1 h at 37 °C and centrifuged for 10 min at 2000 rpm. The release of hemoglobin was controlled by measuring the optical density of the supernatant on an InvitroLogic microplate reader at λ = 540 nm. A control sample corresponding to zero hemolysis (blank experiment) was prepared by adding 50 μL of a 10% red blood cell suspension to 450 μL of saline (0.9% NaCl). A control sample corresponding to 100% hemolysis was prepared by adding 50 μL of a 10% red blood cell suspension to 450 μL of distilled water. Blood was taken at the Clinic of the Federal Research Center “Kazan Scientific Center of the Russian Academy of Sciences” from healthy donors with their personal consent."}, "PC3": {"tested_on": "PC3", "experiment": "cells", "settings": "Homo sapiens, PC-3, 48 h, read-out: Cytotoxic Effects (IC50), PC3, MTT assay, 48 h"}}, "data": [{"smiles": "CCCCCCCC[P+](N(CC)CC)(N(CC)CC)N(CC)CC", "note": "[4b, Tris(diethylamino)(octyl)phosphonium iodide]", "values": [{"measurement": "apoptosis-inducing effect (in words)", "setting": "HuTu 80 cells [1]", "value": "dose-dependent apoptosis"}, {"measurement": "effect on mitochondrial membrane potential (in words)", "setting": "HuTu 80 cells [2]", "value": "decrease in the mitochondrial membrane potential"}, {"measurement": "ROS production, CellROX Deep Red fluorescence (in words)", "setting": "HuTu 80 cells [3]", "value": "increase in the fluorescence intensity"}, {"measurement": "concentration of caspase 9 (in words)", "setting": "caspase 9", "value": "significantly increased"}, {"measurement": "effect on cell cycle (in words)", "setting": "HuTu 80 cells [4]", "value": "significant delay of cells in the G0/G1 phase"}, {"measurement": "HC50", "setting": "[5]", "value": ">100", "unit": "µM"}, {"measurement": "IC50", "setting": "PC3", "value": "11.6 ± 0.9", "unit": "µM"}]}, {"smiles": "CCCCCCCCCC[P+](N(CC)CC)(N(CC)CC)N(CC)CC", "note": "[4d, Decyltris(diethylamino)phosphonium iodide]", "values": [{"measurement": "IC50", "setting": "PC3", "value": "7.3 ± 0.6", "unit": "µM"}]}, {"smiles": "CCCCCCCC[P+](c1ccccc1)(N(CC)CC)N(CC)CC", "note": "[5b, Bis(diethylamino)(octyl)(phenyl)phosphonium iodide]", "values": [{"measurement": "apoptosis-inducing effect (in words)", "setting": "HuTu 80 cells [1]", "value": "dose-dependent apoptosis"}, {"measurement": "effect on mitochondrial membrane potential (in words)", "setting": "HuTu 80 cells [2]", "value": "decrease in the mitochondrial membrane potential"}, {"measurement": "ROS production, CellROX Deep Red fluorescence (in words)", "setting": "HuTu 80 cells [3]", "value": "increase in the fluorescence intensity"}, {"measurement": "concentration of caspase 9 (in words)", "setting": "caspase 9", "value": "significantly increased"}, {"measurement": "effect on cell cycle (in words)", "setting": "HuTu 80 cells [4]", "value": "significant delay of cells in the G0/G1 phase"}, {"measurement": "HC50", "setting": "[5]", "value": ">100", "unit": "µM"}, {"measurement": "IC50", "setting": "PC3", "value": "11.4 ± 0.9", "unit": "µM"}]}, {"smiles": "CCCCCC[P+](c1ccccc1)(c1ccccc1)N(CC)CC", "note": "[6a, (Diethylamino)(hexyl)diphenylphosphonium iodide]", "values": [{"measurement": "apoptosis-inducing effect (in words)", "setting": "HuTu 80 cells [1]", "value": "number of necrotic cells prevailed"}, {"measurement": "effect on mitochondrial membrane potential (in words)", "setting": "HuTu 80 cells [2]", "value": "decrease in the mitochondrial membrane potential"}, {"measurement": "ROS production, CellROX Deep Red fluorescence (in words)", "setting": "HuTu 80 cells [3]", "value": "increase in the fluorescence intensity"}, {"measurement": "concentration of caspase 9 (in words)", "setting": "caspase 9", "value": "significantly increased"}, {"measurement": "effect on cell cycle (in words)", "setting": "HuTu 80 cells [4]", "value": "slight change in the cell cycle"}, {"measurement": "HC50", "setting": "[5]", "value": "> 100", "unit": "µM"}, {"measurement": "IC50", "setting": "PC3", "value": "4 ± 0.3", "unit": "µM"}]}, {"smiles": "CCCCCCCC[P+](c1ccccc1)(c1ccccc1)N(CC)CC", "note": "[6b, (Diethylamino)(octyl)diphenylphosphonium iodide]", "values": [{"measurement": "HC50", "setting": "[5]", "value": ">100", "unit": "µM"}]}, {"smiles": "CCCCCCCC[P+](c1ccccc1)(c1ccccc1)c1ccccc1", "note": "[compound 8, Octyltriphenylphosphonium iodide, reference compound]", "values": [{"measurement": "apoptosis-inducing effect (in words)", "setting": "HuTu 80 cells [1]", "value": "more active in the early stage of apoptosis"}, {"measurement": "effect on mitochondrial membrane potential (in words)", "setting": "HuTu 80 cells [2]", "value": "decrease in the mitochondrial membrane potential"}, {"measurement": "ROS production, CellROX Deep Red fluorescence (in words)", "setting": "HuTu 80 cells [3]", "value": "increase in the fluorescence intensity"}, {"measurement": "concentration of caspase 9 (in words)", "setting": "caspase 9", "value": "significantly increased"}, {"measurement": "effect on cell cycle (in words)", "setting": "HuTu 80 cells [4]", "value": "significant delay of cells in the G0/G1 phase"}, {"measurement": "IC50", "setting": "PC3", "value": "0.4 ± 0.03", "unit": "µM"}]}]}
